This is an account of results in patent US3981982A, “Radioimmunoassay for determining the digoxin content of a sample” (Abbott Laboratories, priority 1974, dated 1976).

Data set [1] deals with digoxin antibody. The experiment in a line: Competitive radioimmunoassay with I^125 digoxin tyramine analog, polyethylene glycol separation: percent bound (Table I). It is filed as binding, rabbits. Conditions: for Percent Bound: single tube. The text has this:
Described is a competitive radioimmunoassay in which non-radioactive digoxin in a serum sample competes with a constant amount of I^125 digoxin tyramine analog for binding cites on a limited amount of digoxin antibody. The percentage or portion of the radioactivity labeled digoxin which is bound to the antibody is inversely proportional to the concentration of digoxin in the serum sample. The antibody bound digoxin, both radioactive and non-radioactive is separated from unbound digoxin and the radioactivity of the complex is measured with a well-type gamma scintillation counter. The concentration of digoxin in the serum is determined by comparison with standards containing measured amounts of unlabeled digoxin. The use of I^125 digoxin tyramine analog simplifies the procedure, obviating the need for liquid scintillation counting fluid which must be used with ^3 H-digoxin.
In the radioimmunoassay of the present invention, the use of polyethylene glycol is preferred to separate the bound, labeled digoxin tyramine analog from the free digoxin although ethanol or ammonium sulfate can be used. After incubation of the antigen and antibody, a predetermined amount of polyethylene glycol is added and the mixture is agitated. Subsequently, the antibody-bound digoxin is precipitated and separated by centrifugation. The radioactivity remaining in the precipitate is measured to determine the amount of I^125 digoxin tyramine analog which is bound to the antibody. This amount will be inversely proportional with the quantity of nonlabeled antigen present in the serum sample.
The radioimmunoassay of the present invention measures digoxin in the serum sample. The digoxin in a serum sample competes with a constant amount of a radioactively labeled digoxin tyramine analog for binding cites on a limited amount of digoxin antibody. The digoxin tyramine analog comprises 3-0-(4-Hydroxyphenethylcarbamoyl) digoxigenin prepared as hereinafter described. The digoxin tyramine analog is labeled with a radioactive isotope, employing conventional procedures. Iodine-I^125 is preferred as the labeling agent because of its advantageous half life but other radionuclides such as iodine^131, phosphorus^32 and tritium can also be used to radioactively label the reagent. The use of this tracer simplifies the procedure, obviating the need for liquid scintillation counting fluid which must be used with prior tracers such as ^3 H-digoxin.
1. I^125 -digoxin tyramine analog solution in an alcohol-phosphate saline buffer and having a radioactivity level of approximately 1 microcurie per vial.
2. Digoxin standards for preparation of a standard curve and comprising five vials containing 0.0, 0.5, 1.0, 2.0 and 4.0 nanograms per milliliter digoxin in normal human serum. 0.2% sodium azide is used as a preservative.
3. Digoxin antiserum obtained from rabbits in phosphate-saline buffer containing 0.1% […] serum albumin. 0.2% sodium azide is used as a preservative.
4. Polyethylene glycol, 18% solution in 0.09M barbital buffer.
The test procedure is conducted as follows.
b. Tubes 3 through 12 containing known amounts of digoxin are used to prepare the standard curve. Tubes 3 and 4, 0.0 nanograms per milliliter digoxin. Tubes 5 and 6, 0.5 nanograms per milliliter digoxin. Tubes 7 and 8, 1.0 nanograms per milliliter digoxin. Tubes 9 and 10, 2.0 nanograms per milliliter digoxin. Tubes 11 and 12, 4.0 nanograms per milliliter digoxin.
(§1) The tubes are shaken to mix the reagents therein.
The points are connected with straight lines to construct the curve.

Data set [2] has as its system digoxin antibody. Kind of data set: Reproducibility of percent bound, two technicians (Table II). It is filed as binding, rabbits. As to the method: as §1
Table II illustrates the accuracy, precision and reproducibilty of the method of the present invention.
Replicates of 2 Panel Samples were assayed by two technicians in the
laboratory. Fifteen replicate samples were used.

The conditions of data set [3]: digoxin level; suggested by H. M. Part et al., J. of NUCL. Med. 1973; cited from earlier work.
The conditions of data set [4]: usually; background statement; cited from earlier work.

Values joined by “and” are separate entries in the source; they are usually repeats but may differ in a detail not shown here. Equal entries are not always repeated.

As for `C[C@]12CC[C@H](OC(=O)NCCc3ccc(O)c([125I])c3)C[C@H]1CC[C@@H]1[C@@H]2C[C@@H](O)[C@]2(C)[C@@H](C3=CC(=O)OC3)CC[C@]12O` [I^125 digoxin tyramine analog], the “Average % Bound” value in data set [1] (digoxin standard 0.0 ng/ml, mean of duplicate tubes 3, 4) was 59.7%; in data set [1] (digoxin standard 0.5 ng/ml, mean of duplicate tubes 5, 6) it was 52.9%; in data set [1] (digoxin standard 1.0 ng/ml, mean of duplicate tubes 7, 8), 41.5%; in data set [1] (digoxin standard 2.0 ng/ml, mean of duplicate tubes 9, 10), 22.9%; in data set [1] (digoxin standard 4.0 ng/ml, mean of duplicate tubes 11, 12) it was 12.9%; in data set [1] (unknown serum sample No. 14, mean of duplicates), 17.7%. In addition, the “Average % Bound” value in data set [1] (unknown serum sample No. 15, mean of duplicates) turned out to be 64.1%; in data set [1] (unknown serum sample No. 16, mean of duplicates) it was 25.3%; in data set [1] (unknown serum sample No. 17, mean of duplicates) it was 49.6%; in data set [1] (unknown serum sample No. 18, mean of duplicates), 24.4%. The “Percent Bound” value is 59.2% and 60.2% in data set [1] (digoxin standard 0.0 ng/ml); 53.8% and 52.1% in data set [1] (digoxin standard 0.5 ng/ml); 41.5% in data set [1] (digoxin standard 1.0 ng/ml); 22.5% and 23.4% in data set [1] (digoxin standard 2.0 ng/ml); 12.8% and 12.9% in data set [1] (digoxin standard 4.0 ng/ml); 17.5% and 17.9% in data set [1] (unknown serum sample No. 14). The “Percent Bound” value in data set [1] (unknown serum sample No. 15) is 63.3% and 65.0%; in data set [1] (unknown serum sample No. 16) it was 25.1% and 25.5%; in data set [1] (unknown serum sample No. 17) it was 50.8% and 48.5%; in data set [1] (unknown serum sample No. 18), 24.5% and 24.3%. Moreover, the “% Bound” value in data set [2] (Panel Sample 1, Technician I, fifteen replicates) is on record as 44.1%; in data set [2] (Panel Sample 1, Technician II, fifteen replicates), 43.6%; in data set [2] (Panel Sample 2, Technician I, only 14 replicates), 21.5%; in data set [2] (Panel Sample 2, Technician II, fifteen replicates), 20.1%.

`C[C@H]1O[C@@H](O[C@H]2[C@@H](O)C[C@H](O[C@H]3[C@@H](O)C[C@H](O[C@H]4CC[C@@]5(C)[C@H](CC[C@@H]6[C@@H]5C[C@@H](O)[C@]5(C)[C@@H](C7=CC(=O)OC7)CC[C@]65O)C4)O[C@@H]3C)O[C@@H]2C)C[C@H](O)[C@@H]1O` [digoxin]: the approximate toxic threshold in data set [3] is around 2 ng/mL. In addition, the “amounts of digoxin in serum” value in data set [4] is given as “less than five”.
